Our source for the Ki values is patent US9828339B2, “Biphenyl derivatives and methods for preparing same” (DONG-A ST CO., LTD, priority 2013, dated 2017).

For the assay, the target named is human muscarinic M3 receptor (Homo sapiens (Human), UniProt P20309). The experiment in a line: Binding assay on human muscarinic M3 receptor ([3H]-methyl scopolamine displacement). The note with it: membranes overexpressing human M3 receptor, Ki from IC50 by Cheng-Prusoff, read-out: Binding Affinity to M3 Receptor, Ki. As to the method: [Experimental Example 1] Binding Assay on Human Muscarinic M3 Receptor
Cell membrane proteins (Perkin Elmer) wherein human muscarinic M3 receptor was overexpressed, [^3H]-methyl scopolamine and test compounds in various concentration were cultured in 0.2 ml of Tris-HCl buffer at 25° C. for 120 minutes. The same was filtered under suction through glass fiber filter (Whatman GF/B), and then the filter was washed 5 times with 1 ml of Tris-HCl buffer. The radioactivity of [^3H]-methyl scopolamine adsorbed on the filter was measured by a liquid scintillation counter. Non-specific binding was evaluated under existence of 5 μM of atropine. Affinity of the compound of the present invention to muscarinic M3 receptor was calculated as the dissociation constant (Ki), which can be calculated from concentration (IC50) of test compounds inhibiting 50% of binding of [^3H]-methyl scopolamine (i.e. labeled ligand) according to Cheng and Prusoff [Cheng and Prusoff, Biochem. Pharmacol., 22, 3099, 1973].

Bounds are passed on as bounds.

human muscarinic M3 receptor, sequence (P20309 whole entry): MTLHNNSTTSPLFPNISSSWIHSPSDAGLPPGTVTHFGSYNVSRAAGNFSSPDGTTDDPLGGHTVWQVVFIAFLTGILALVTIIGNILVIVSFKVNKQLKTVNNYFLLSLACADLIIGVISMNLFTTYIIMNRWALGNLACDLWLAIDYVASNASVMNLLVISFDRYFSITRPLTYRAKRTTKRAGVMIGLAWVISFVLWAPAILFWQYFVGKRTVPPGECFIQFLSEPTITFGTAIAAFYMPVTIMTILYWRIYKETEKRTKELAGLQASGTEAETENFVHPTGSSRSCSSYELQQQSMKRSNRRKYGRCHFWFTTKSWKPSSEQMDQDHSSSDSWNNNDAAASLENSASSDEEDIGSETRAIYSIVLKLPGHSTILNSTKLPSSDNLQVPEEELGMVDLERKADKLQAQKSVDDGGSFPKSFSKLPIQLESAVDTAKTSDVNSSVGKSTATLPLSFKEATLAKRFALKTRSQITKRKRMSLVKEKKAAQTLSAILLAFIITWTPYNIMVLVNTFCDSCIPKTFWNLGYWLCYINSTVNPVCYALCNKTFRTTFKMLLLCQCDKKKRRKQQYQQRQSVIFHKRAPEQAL

For the compound `O=C(Nc1ccccc1-c1ccc(F)cc1)OCC1CCCN1` (stereo in doubt) [Example 88, (S)-pyrrolidin-2-ylmethyl (4′-fluoro-[1,1′-biphenyl]-2-yl)carbamate], the Ki was 99.7 nM.
In the case of `COc1ccc(-c2ccccc2NC(=O)OCCC2CCCN2C)cc1` (stereo not drawn) [Example 5, 2-(1-methylpyrrolidin-2-yl)ethyl(4′-methoxy-[1,1′-biphenyl]-2-yl)carbamate] it was 1100 nM; in that of `CN1CCCC1CCOC(=O)Nc1ccccc1-c1ccc(Cl)cc1` (stereo not drawn) [Example 7, 2-(1-methylpyrrolidin-2-yl)ethyl(4′-chloro-[1,1′-biphenyl]-2-yl)carbamate], 31.8 nM.
`CN1CCCC1CCOC(=O)Nc1ccccc1-c1ccc(OC(F)(F)F)cc1` (stereo not drawn) [Example 10, 2-(1-methylpyrrolidin-2-yl)ethyl(4′-trifluoromethoxy-[1,1′-biphenyl]-2-yl)carbamate]: the Ki amounted to 401 nM.
As to `CN1CCCC1CCOC(=O)Nc1ccccc1-c1ccc([N+](=O)[O-])cc1` (stereo not drawn) [Example 11, 2-(1-methylpyrrolidin-2-yl)ethyl(4′-nitro-[1,1′-biphenyl]-2-yl)carbamate], the Ki is 467 nM.
In the case of `CN1CCCC1CCOC(=O)Nc1ccccc1-c1cccc(C(F)(F)F)c1` (stereo not drawn) [Example 12, 2-(1-methylpyrrolidin-2-yl)ethyl(3′-trifluoromethyl-[1,1′-biphenyl]-2-yl)carbamate] it was 88 nM.
As for `CN1CCCC1CCOC(=O)Nc1ccccc1-c1ccc(C(F)(F)F)cc1` (stereo not drawn) [Example 13, 2-(1-methylpyrrolidin-2-yl)ethyl(4′-trifluoromethyl-[1,1′-biphenyl]-2-yl)carbamate], the figure is 80.1 nM; as for `Cc1ccc(-c2ccccc2NC(=O)OCCC2CCCN2C)cc1F` (stereo not drawn) [Example 14, 2-(1-methylpyrrolidin-2-yl)ethyl((3′-fluoro-4′-methyl)-[1,1′-biphenyl]-2-yl)carbamate], 12.4 nM; as for `CCOc1cccc(-c2ccccc2NC(=O)OCCC2CCCN2C)c1` (stereo not drawn) [Example 16, 2-(1-methylpyrrolidin-2-yl)ethyl(3′-ethoxy-[1,1′-biphenyl]-2-yl)carbamate], 1060 nM.
As for `CN1CCCC1CCOC(=O)Nc1ccc(F)cc1-c1cccc(F)c1` (stereo not drawn) [Example 18, 2-(1-methylpyrrolidin-2-yl)ethyl(3′,5-difluoro-[1,1′-biphenyl]-2-yl)carbamate], the figure is 6.98 nM; as for `CN1CCCC1CCOC(=O)Nc1ccc(F)cc1-c1cc(F)cc(F)c1` (stereo not drawn) [Example 20, 2-(1-methylpyrrolidin-2-yl)ethyl(3′,5,5′-trifluoro-[1,1′-biphenyl]-2-yl)carbamate], 20.7 nM.
As to `CN1CCCC1CCOC(=O)Nc1cc(F)ccc1-c1ccccc1` (stereo not drawn) [Example 23, 2-(1-methylpyrrolidin-2-yl)ethyl(4-fluoro-[1,1′-biphenyl]-2-yl)carbamate], the Ki amounted to 6.4 nM.
As for `CN1CCCC1CCOC(=O)Nc1cc(F)ccc1-c1cccc(F)c1` (stereo not drawn) [Example 24, 2-(1-methylpyrrolidin-2-yl)ethyl(3′,4-difluoro-[1,1′-biphenyl]-2-yl)carbamate], the figure is 31 nM; as for `COc1ccc(-c2ccccc2)c(NC(=O)OCCC2CCCN2C)c1` (stereo not drawn) [Example 25, 2-(1-methylpyrrolidin-2-yl)ethyl(4-methoxy-[1,1′-biphenyl]-2-yl)carbamate], 115 nM; as for `Cc1ccc(NC(=O)OCCC2CCCN2C)c(-c2cccc(F)c2)c1` (stereo not drawn) [Example 27, 2-(1-methylpyrrolidin-2-yl)ethyl(3′-fluoro-5-methyl-[1,1′-biphenyl]-2-yl)carbamate], 56.7 nM.
In the case of `CN1CCCC1CCOC(=O)Nc1ccccc1-c1ccc(C#N)cc1` (stereo not drawn) [Example 28, 2-(1-methylpyrrolidin-2-yl)ethyl(4′-cyano-[1,1′-biphenyl]-2-yl)carbamate] it was 845 nM; in that of `CN1CCCC1CCOC(=O)Nc1ccccc1-c1cccc(CCCO)c1` (stereo not drawn) [Example 29, 2-(1-methylpyrrolidin-2-yl)ethyl(3′-(3-hydroxypropyl)-[1,1′-biphenyl]-2-yl)carbamate], 931 nM; in that of `CN(C)c1ccc(-c2ccccc2NC(=O)OCCC2CCCN2C)cc1` (stereo not drawn) [Example 30, 2-(1-methylpyrrolidin-2-yl)ethyl(4′-(dimethylamino)-[1,1′-biphenyl]-2-yl)carbamate], 830 nM.
Regarding `CN1CCCC1CCOC(=O)Nc1ccccc1-c1ccc(C(C)(C)C)cc1` (stereo not drawn) [Example 31, 2-(1-methylpyrrolidin-2-yl)ethyl(4′-(tert-butyl)-[1,1′-biphenyl]-2-yl)carbamate], the Ki came to 311 nM.
As for `CN1CCCC1CCOC(=O)Nc1ccccc1-c1ccccc1N` (stereo not drawn) [Example 32, 2-(1-methylpyrrolidin-2-yl)ethyl(2′-amino-[1,1′-biphenyl]-2-yl)carbamate], the figure is above 1000 nM; as for `CN1CCCC1CCOC(=O)Nc1ccccc1-c1cccc(N)c1` (stereo not drawn) [Example 33, 2-(1-methylpyrrolidin-2-yl)ethyl(3′-amino-[1,1′-biphenyl]-2-yl)carbamate], 16.8 nM.
As for `CN1CCCC1CCOC(=O)Nc1ccccc1-c1ccccc1Cl` (stereo not drawn) [Example 35, 2-(1-methylpyrrolidin-2-yl)ethyl(2′-chloro-[1,1′-biphenyl]-2-yl)carbamate], the figure is 435 nM; as for `CN1CCCC1CCOC(=O)Nc1ccccc1-c1ccccc1O` (stereo not drawn) [Example 36, 2-(1-methylpyrrolidin-2-yl)ethyl(2′-hydroxy-[1,1′-biphenyl]-2-yl)carbamate], above 1000 nM.
In the case of `Cc1cc(-c2ccccc2NC(=O)OCCC2CCCN2C)cc(C(C)(C)C)c1` (stereo not drawn) [Example 37, 2-(1-methylpyrrolidin-2-yl)ethyl(3′-tert-butyl-5′-methyl-[1,1′-biphenyl]-2-yl)carbamate], the Ki is above 1000 nM.
In the case of `CN1CCCC1CCOC(=O)Nc1ccccc1-c1ccc(F)c(C(F)(F)F)c1` (stereo not drawn) [Example 38, 2-(1-methylpyrrolidin-2-yl)ethyl(4′-fluoro-3′-(trifluoromethyl)-[1,1′-biphenyl]-2-yl)carbamate] it was 574 nM.
In the case of `CN1CCCC1CCOC(=O)Nc1ccccc1-c1ccc(N)c(Cl)c1` (stereo not drawn) [Example 39, 2-(1-methylpyrrolidin-2-yl)ethyl(4′-amino-3′-chloro-[1,1′-biphenyl]-2-yl)carbamate] it was 28 nM; in that of `CN1CCCC1CCOC(=O)Nc1ccccc1-c1cccc(O)c1` (stereo not drawn) [Example 40, 2-(1-methylpyrrolidin-2-yl)ethyl(3′-hydroxy-[1,1′-biphenyl]-2-yl)carbamate], 119 nM; in that of `CCc1cccc(-c2cc(F)ccc2NC(=O)OCCC2CCCN2C)c1` (stereo not drawn) [Example 44, 2-(1-methylpyrrolidin-2-yl)ethyl(3′-ethyl-5-fluoro-[1,1′-biphenyl]-2-yl)carbamate], 95.5 nM.
In the case of `Cc1cc(C)cc(-c2cc(F)ccc2NC(=O)OCCC2CCCN2C)c1` (stereo not drawn) [Example 45, 2-(1-methylpyrrolidin-2-yl)ethyl(5-fluoro-3′,5′-dimethyl-[1,1′-biphenyl]-2-yl)carbamate] it was 69.6 nM.
`CN1CCCC1CCOC(=O)Nc1ccc(F)cc1-c1cccc(N)c1` (stereo not drawn) [Example 46, 2-(1-methylpyrrolidin-2-yl)ethyl(3′-amino-5-fluoro-[1,1′-biphenyl]-2-yl)carbamate]: the Ki stood at 37.5 nM.
With `CN1CCCC1CCOC(=O)Nc1ccc(C(F)(F)F)cc1-c1ccccc1` (stereo not drawn) [Example 47, 2-(1-Methylpyrrolidin-2-yl)ethyl(5-(trifluoromethyl)-[1,1′-biphenyl]-2-yl)carbamate], the Ki is 136 nM.
In the case of `CN1CCCC1CCOC(=O)Nc1ccc(C(F)(F)F)cc1-c1ccc(F)cc1` (stereo not drawn) [Example 48, 2-(1-Methylpyrrolidin-2-yl)ethyl(4′-fluoro-5-(trifluoromethyl)-[1,1′-biphenyl]-2-yl)carbamate] it was 258 nM.
As for `CN1CCCC1CCOC(=O)Nc1ccc(C(F)(F)F)cc1-c1cccc(F)c1` (stereo not drawn) [Example 49, 2-(1-Methylpyrrolidin-2-yl)ethyl(3′-fluoro-5-(trifluoromethyl)-[1,1′-biphenyl]-2-yl)carbamate], the figure is 303 nM; as for `CN1CCCC1CCOC(=O)Nc1ccc(C(F)(F)F)cc1-c1cc(F)cc(F)c1` (stereo not drawn) [Example 50, 2-(1-Methylpyrrolidin-2-yl)ethyl (3′,5′-difluoro-5-(trifluoromethyl)-[1,1′-biphenyl]-2-yl)carbamate], above 1000 nM.
On to `CN1CCCC1CCOC(=O)Nc1ccc(C(F)(F)F)cc1-c1cccc(Cl)c1` (stereo not drawn) [Example 51, 2-(1-Methylpyrrolidin-2-yl)ethyl(3′-chloro-5-(trifluoromethyl)-[1,1′-biphenyl]-2-yl)carbamate], for which the Ki turned out to be 101 nM.
Regarding `CN1CCCC1CCOC(=O)Nc1ccc(F)cc1-c1ccc(Cl)c(F)c1` (stereo not drawn) [Example 54, 2-(1-methylpyrrolidin-2-yl)ethyl(4′-chloro-3′,5-difluoro-[1,1′-biphenyl]-2-yl)carbamate], the Ki worked out at 126 nM.
On to `CN1CCCC1CCOC(=O)Nc1ccc(F)cc1-c1cc(Cl)cc(Cl)c1` (stereo not drawn) [Example 55, 2-(1-methylpyrrolidin-2-yl)ethyl(3′,5′-dichloro-5-fluoro-[1,1′-biphenyl]-2-yl)carbamate], for which the Ki is 38.8 nM.
As for `CN1CCCC1CCOC(=O)Nc1ccc(F)cc1-c1cc(O)cc(Cl)c1` (stereo not drawn) [Example 57, 2-(1-methylpyrrolidin-2-yl)ethyl(3′-chloro-5-fluoro-5′-hydroxy-[1,1′-biphenyl]-2-yl)carbamate], the figure is 34.8 nM.
As for `COc1ccc(NC(=O)OCCC2CCCN2C)c(-c2ccccc2)c1` (stereo not drawn) [Example 60, 2-(1-methylpyrrolidin-2-yl)ethyl(5-methoxy-[1,1′-biphenyl]-2-yl)carbamate], the figure is 119 nM.

The Ki is the dissociation constant of the complex between target and ligand, obtained from inhibition or displacement.
